Assay results published in patent US11974969B2, “Artificially synthesized sphingosine derivative lipoid monomer and use of same for delivering nucleic acid” (INSTITUTE OF BASIC MEDICAL SCIENCES CHINESE ACADEMY OF …, priority 2018, dated 2024).

Test system: HEK293T cells
Experiment: Flow cytometry (CFlow): delivery of FAM-labeled single-stranded PGY-sRNA-6 into HEK293T cells by different concentrations of single sphingosine derivative (Example 1)
Assay type: cell-based, human
Conditions: for delivery of single-stranded PGY-sRNA-6 into 293T cells (fluorescence shift compared to free uptake group): different concentrations: 3.75, 12.5, 37.5 μg single lipid, 0.1 nmol FAM-labeled sRNA, final 100 nM, 9 hours, flow cytometry; for Lipid delivery group (different concentrations of lipids) 3.75 μg/mL: single sphingosine derivative 3.75 μg/mL; for Lipid delivery group (different concentrations of lipids) 3.75 μg/mL / Lipid delivery group (different concentrations of lipids) 12.5 μg/mL / Lipid delivery group (different concentrations of lipids) 37.5 μg/mL: FAM-labeled PGY-ssRNA-6 100 nM, 293T cells, fluorescence shift by flow cytometry; for Lipid delivery group (different concentrations of lipids) 12.5 μg/mL: single sphingosine derivative 12.5 μg/mL; for Lipid delivery group (different concentrations of lipids) 37.5 μg/mL: single sphingosine derivative 37.5 μg/mL
Method: 2.1 5 μl of small RNA (Ribobio, 20 μM, as shown in Table 2) and 95 μL of DEPC (Sigma) treated water were added into a 1.5 ml EP tube and mixed well. Then a certain amount of single lipid or lipid composition in chloroform solution (as shown in Table 1) was added and fully mixed by sucking and blowing;
2.2 The system was fully mixed and was heated in a water bath at 90° C. for 15 minutes;
2.3 The system was taken out and cooled down to room temperature.
4.3 The human embryonic kidney cell line HEK293T and human monocyte THP-1 cells used in the experiment were cultured to logarithmic growth phase, and then plated into 12-well plates with a cell density of 6×10^5/1 mL medium/well. The 12-well plate (1 mL medium/well) was incubated overnight (12 h) at 37° C., followed by subsequent experiments.
4.4 The experiment groups were as follows: • 1) Naïve group: untreated cells. This group served as a blank control group. • 2) Free uptake group: […] of 5′-FAM labeled small RNA solution (storage concentration is 20 μM) was directly added. This group served as a negative control group; • 3) Lipid nucleic acid mixture treatment group: The mixture of the lipid prepared in step 2 and the 5′-FAM-labeled small RNA was added into the cells and mixed well. The final concentration of small RNA is 100 nM.
4.5 After co-incubation with cells for 6 h/9 h, the cells were washed three times with PBS. The cells were re-suspended with PBS (self-prepared). The flow cytometer Accuri® C6 instrument (purchased from BD, US) was used to detect the fluorescence intensity of the cells in the sample wells. Implementation method: the software CFlow Plus used in the flow cytometer Accuri® C6 instrument detection was opened, the instrument was washed with cleaning solution for 3 minutes, and then washed with double-distilled water for 5 minutes. The injection of blank group samples was started while setting the number of cells unlimited. The injection of Naïve group samples was stopped when the number of cells detected was 10000 events. The live cell group in the fluorescence spectrum (abscissa: FSC-A, ordinate: SSC-A) was circled as gate P1. With the number of cells set as limited, the detection was stopped when the number of cells in gate P1 reached 10000 events. The fluorescence shift value was obtained in the fluorescence spectrum (abscissa: fluorescence channel FLA-1, ordinate: SSC-A).
1) Conditions of the boiling method: to 100 μL FAM-labeled single-stranded PGY-sRNA-6 solution was added corresponding amount of lipid solution, and heated at 90° C. for 15 min;
2) Experimental conditions: the final concentration of small RNA was 100 nM. 9 hours after being added to the cells, the amount of single-stranded PGY-sRNA-6 that entered into the cells was compared by detecting the fluorescence shift using flow cytometry technology. For the detailed protocols, see “Flow cytometry technology (CFlow) determined the uptake amount of nucleic acid that is delivered into cells by lipid”. All experiments were performed in triplicates.

Compound | delivery of single-stranded PGY-sRNA-6 into 293T cells (fluorescence shift compared to free uptake group) | Lipid delivery group (different concentrations of lipids) 3.75 μg/mL | Lipid delivery group (different concentrations of lipids) 12.5 μg/mL | Lipid delivery group (different concentrations of lipids) 37.5 μg/mL
CCCCCCCCCCCCC/C=C/[C@H](O)[C@H](N)CO [So-70, (2R,3S,4E)-2-amino-4-octadecene-1,3-diol] | deliver | 4.70% | 10.10% | 11.40%
CCCCCCCCCC(=O)C(N)CO.Cl (stereo not drawn) [So-72, 2-amino-1-hydroxy-3-dodecanone, monohydrochloride] | deliver | 2.40% | 3.40% | 14.10%
CCCCCCCCCCCCCCCCCC(=O)N[C@@H](CO)[C@H](O)CCCCCCCCCCCCCCC [So-9, N-octadecanoyl-D-erythro-Dihydrosphingosine] | deliver | 3.30% | 2.60% | 2.70%
CCCCCCCCCCCCCCC[C@@H](O)[C@H](CO)N(C)C [So-11, N,N-dimethyl-D-erythro-Dihydrosphingosine] | deliver | 3.60% | 7.40% | 12.70%
CCCCCCCCCCCCC/C=C/[C@@H](O)[C@H](CO)NC(=O)CCCCCCCCCCC [So-13, N-Lauroyl-D-erythro-Sphingosine] | deliver | 3.40% | 3.20% | 5.20%
CCCCCCCCCCCCC/C=C/[C@@H](O)[C@H](CO)NC(=O)CCCCCCCCCCCCCCCCCCCCCCCCCCCCCO [So-14, ω-hydroxy-C30 Sphingosine (d18:1/30:0)] | deliver | 4.40% | 3.30% | 4.30%
CCCCCCCCCCCC/C=C/[C@@H](O)[C@@H](N)CO [So-53, D-erythro-Sphingosine C-17] | deliver | 0.20% | 0.30% | 6.70%
CCCCCCCCCCCCC/C=C/[C@@H](O)[C@H](CO)NC(=O)CCCCCCCCCCCCCC [So-64, N-[(1S,2R,3E)-2-hydroxy-1-(hydroxymethyl)-3-heptadecen-1-yl]-pentadecanamide] | deliver | 7.40% | 6.20% | 8.70%
CCCCCCCCCCCCC/C=C/[C@@H](O)[C@@H](N)CO[C@@H]1OC(CO)[C@@H](O)C(O)C1O (stereo partly drawn) [So-66, D-glucosyl-β1-1′-D-erythro-sphingosine] | deliver | 7.10% | 18.10% | 29.50%
CCCCCCCCCCCCCCCC(=O)C(N)CO.Cl (stereo not drawn) [So-8, 3-keto Dihydrosphingosine] | deliver | 3.60% | 4.50% | 1.90%
CCCCCCCCCCCCC/C=C/[C@@H](O)[C@@H](N)CO [So-26, D-erythro-Sphingosine C-18] | deliver | 0.20% | 3.80% | 0.50%
CCCCCCCCCCCCCCCC(=O)N[C@@H](CO)[C@H](O)[C@H](O)CCCCCCCCCCCCCC [So-68, N-[(1S,2S,3R)-2,3-dihydroxy-1-(hydroxymethyl)heptadecyl]-hexadecanamide] | deliver | 4.80% | 3.80% | 3.90%
CCCCCCCCCCCCC/C=C/[C@@H](O)[C@H](CO)NC(=O)CCCCCCCCCCCCCCCCCC [So-65, N-[(1S,2R,3E)-2-hydroxy-1-(hydroxymethyl)-3-heptadecen-1-yl]-nonadecanamide] | deliver | 7.60% | 7.50% | 6.80%
CCCCCCCCCCCCCCCCC(=O)N[C@@H](CO)[C@H](O)CCCCCCCCCCCCCCC [So-1, N-heptadecanoyl-D-erythro-Dihydrosphingosine] | deliver | 1.60% | 1.50% | 1.40%
CCC/C=C\CCCCCCCCCC[C@@H](O)[C@H](C)N [So-7, 14Z-1-Deoxysphingosine (d18:1)] | deliver | 1.20% | 0.20% | 4.30%
CC(C)CCCCCCCCCCC[C@@H](O)[C@@H](N)CO [So-75, 1,3-Hexadecanediol, 2-amino-15-methyl-, D-erythro-] | deliver | 3.00% | 4.20% | 11.40%
CCCCCCCCCCCCCC=CC(O)C(COP(=O)(O)OCCN)NC(C)=O (stereo not drawn) [So-60, N-Acetyl-Sphingosylphosphorylethanolamine] | deliver | 7.10% | 7.10% | 6.20%
CCCCCCCCCCCCCCCCCC(=O)N[C@@H](CO)[C@H](O)[C@H](O)CCCCCCCCCCCCCC [So-69, N-[(1S,2S,3R)-2,3-dihydroxy-1-(hydroxymethyl)heptadecyl]-octadecanamide] | deliver | 4.60% | 3.80% | 3.30%
